Test system: ARC CSPG-ECM
Experiment: Intranasal PZ6005 in diet-induced obese mice: WFA immunostaining of CSPG-ECM within the ARC
Format: in vivo, mouse
Conditions: 14 days; for ARC CSPG-ECM area, lower than the controls / ARC CSPG-ECM intensity, decrease: 12-week-HFHS-diet-fed obese mice
Method: For detection of aggrecan, GFP, HABP, parvalbumin, mCherry, versican, tenascin-C, HAPLN1, neurocan, phosphacan, brevican, WFA and WFA-FITC sections were incubated at room temperature for 1 h in blocking buffer (0.3% Triton X-100, 5% normal goat serum, Gibco, ThermoFisher, MA, 0.02% sodium azide) and then overnight at 4° C. in 1% blocking buffer containing either rabbit anti-aggrecan (1:1000, AB1031, Millipore, MA), chicken anti-GFP (1:2000; ab13970, Abcam, Cambridge, UK), Biotinylated HABP (1:100, 385911, Burlington, MA), sheep anti-parvalbumin (1:1000), in house), rabbit anti-dsRed (1:2000, 600-401-379, Rockland, PA), rabbit anti-versican (1:1000, AB1033, Millipore, MA), tenascin-C (1:500, M1-B4, Developmental Studies Hybridoma Bank, Iowa), HAPLN1 (1:500, 9/30/8-A-4, Developmental Studies Hybridoma Bank, Iowa), neurocan (1:300, 1F6-S, Developmental Studies Hybridoma Bank, Iowa), phophacan (1:300, 3F8, Developmental Studies Hybridoma Bank, Iowa), brevican (1:500, 610895, BD Transduction Laboratories), biotinylated WFA (1:2000, L1516; Sigma-Aldrich, MO), WFA-FITC (1:2000, FL-1351-2, Vector Laboratories, CA), rabbit anti PGP9.5 (1:1000, 14730-1-AP, Proteintech, IL), guinea pig anti AgRP (1:500, AS506, Antibodies Australia, Melbourne, AUS). After washing with PBS-T (0.3% Triton X-100 in PBS, +0.02% sodium azide), sections were incubated with goat anti-chicken Alexa Fluor 488 (ab150169, Abcam, Cambridge, UK), goat anti-rabbit Alexa Fluor-488, 595, 647 (ab150077, ab150080, ab150083, Abcam, Cambridge, UK), donkey anti-sheep Alexa Fluor 594 (ab150180, Abcam, Cambridge, UK), Alexa Fluor 594, 647 Streptavidin (405240, BioLegend, CA)—conjugated secondary antibodies in 5% blocking buffer for 2 h at room temperature. […] Brightness and contrast in the colour merged images have been adjusted to aid in the analysis of co-incidence.
All image quantification was performed in Image J (NIH) software (NIH, MA). Raw images underwent background subtraction using a rolling ball algorithm to minimize background and any potential variance in tissue autofluorescence. To quantify area and intensity of the CSPG-ECM within each brain region (ARC, VMH or RSG cortex) images were thresholded and binarized to create a region of interest (ROI) mask of only the CSPG-ECM. For each brain area, CSPG-ECM ROI area (μm^2) and intensity (sum of all pixel intensities within the ROI) was calculated. This process was automated to minimise bias and to account for differences in brain nuclei size across multiple images. Brain nuclei were defined in accordance with the Paxinos and Franklin mouse brain atlas (http://labs.gaidi.ca/mouse-brain-atlas/). The area and intensity of CSPG-ECM within each region was normalised to the respective control.
Conscious mice were restrained by scruffing and inverted parallel to the floor with the chin at ˜180-degree angle with the neck. Using a 10 μL tip, a pipettor was loaded with 5 μl of vehicle (ddH2O) or fluorosamine (1 mg/animal in 20 μl or 5 mg/animal in 20 μl). The tip of the filled pipettor was placed near the left nostril at a 45-degree angle, and the drug was ejected to form a small 5 μl droplet at tip for the mouse to inhale. Immediately after the mouse inhaled the first droplet the remaining solution was ejected to form another small droplet for the mouse to inhale through the same nostril. The mouse was held in this position for 15 seconds before the procedure was repeated in the right nostril.

SMILES: CC(=O)NC1C(OC(C)=O)OC(COC(C)=O)[C@@H](F)C1OC(C)=O (some centres unmarked) [fluorosamine, per-O-acetylated-4-F-N-acetylglucosamine]
- ARC CSPG-ECM area, lower than the controls (I.N. 1 mg/animal/day): 13.54±1.03%
- ARC CSPG-ECM intensity, decrease (I.N. 1 mg/animal/day): 15.94±7.17%
- ARC CSPG-ECM intensity, decrease (I.N. 5 mg/animal/day (highest dose)): 30.16±1.52%
- ARC CSPG-ECM area, lower than the controls (I.N. 5 mg/animal/day): 13.59±4.09%
- ARC neurofibrosis (intranasal, diet-induced obese mice, dose not given): successfully attenuated ARC neurofibrosis
